Reference: PubChem BioAssay AID2060510 (Molecular Pharmacology Branch, DTP, NCI, 2025)
pIC50: −log10 of the molar value.

Tested on: 439559-082-T-J2-PDC spheroids viability
Assay: Anticancer human tumor 439559-082-T-J2-PDC patient-derived colon adenocarcinoma cell line growth inhibition [GQUAD]
Details: for pIC50: curve of first compound; for viability, T/C: stronger effect = lower value; active means viability on the fitted dose curve at most 10% of control; inactive means the rest
Method in brief: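 Tumor cells were grown as complex spheroids with HUVEC endothelial cells and mesenchymal stem cells as stroma. G-quadruplex stabilizers were combined with targeted agents over half-log dilutions from near the clinical Cmax, or from 10 microM.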

[1] = second compound 0.0316 µM, first compound 0.0316 µM
[2] = second compound 0.0316 µM, first compound 0.1 µM
[3] = second compound 0.0316 µM, first compound 0.316 µM
[4] = second compound 0.0316 µM, first compound 1 µM
[5] = second compound 0.0316 µM, first compound 3.16 µM
[6] = second compound 0.0316 µM, first compound 10 µM
[7] = second compound 0.1 µM, first compound 0.0316 µM
[8] = second compound 0.1 µM, first compound 0.1 µM
[9] = second compound 0.1 µM, first compound 0.316 µM
[10] = second compound 0.1 µM, first compound 1 µM
[11] = second compound 0.1 µM, first compound 3.16 µM
[12] = second compound 0.1 µM, first compound 10 µM
[13] = second compound 0.316 µM, first compound 0.0316 µM
[14] = second compound 0.316 µM, first compound 0.1 µM
[15] = second compound 0.316 µM, first compound 0.316 µM
[16] = second compound 0.316 µM, first compound 1 µM
[17] = second compound 0.316 µM, first compound 3.16 µM
[18] = second compound 0.316 µM, first compound 10 µM
[19] = second compound 1 µM, first compound 0.0316 µM
[20] = second compound 1 µM, first compound 0.1 µM
[21] = second compound 1 µM, first compound 0.316 µM
[22] = second compound 1 µM, first compound 1 µM
[23] = second compound 1 µM, first compound 3.16 µM
[24] = second compound 1 µM, first compound 10 µM
[25] = second compound 3.16 µM, first compound 0.0316 µM
[26] = second compound 3.16 µM, first compound 0.1 µM
[27] = second compound 3.16 µM, first compound 0.316 µM
[28] = second compound 3.16 µM, first compound 1 µM
[29] = second compound 3.16 µM, first compound 3.16 µM
[30] = second compound 3.16 µM, first compound 10 µM
[31] = second compound 10 µM, first compound 0.0316 µM
[32] = second compound 10 µM, first compound 0.1 µM
[33] = second compound 10 µM, first compound 0.316 µM
[34] = second compound 10 µM, first compound 1 µM
[35] = second compound 10 µM, first compound 3.16 µM
[36] = second compound 10 µM, first compound 10 µM
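Further: spheroids exposed to the agents for 7 days before readout.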
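Wherever viability, T/C is given: percent of luminescence signal in DMSO vehicle wells taken as 100% viability.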

CC(C)(O)C1CCC(Nc2ccc3ncc(-c4cccc(C(F)(F)F)c4)n3n2)CC1 (stereo unspecified) + CN(C)c1ccc(Nc2c3ccc(NC(=O)CCN4CCCC4)cc3nc3cc(NC(=O)CCN4CCCC4)ccc23)cc1
5.78: pIC50 (second compound 0.1 µM) | pIC50 (second compound 1 µM)
5.80: pIC50 (second compound 0.0316 µM) | pIC50 (second compound 10 µM)
5.74: pIC50 (second compound 0.316 µM)
inactive: viability, T/C [1] 92.7% | viability, T/C [2] 94.7% | viability, T/C [3] 94% | viability, T/C [4] 78.1% | viability, T/C [7] 117% | viability, T/C [8] 111% | viability, T/C [9] 108% | viability, T/C [10] 77.5% | viability, T/C [11] 13.9% | viability, T/C [13] 104% | viability, T/C [14] 96.9% | viability, T/C [15] 91.8% | viability, T/C [16] 90.3% | viability, T/C [17] 12.7% | viability, T/C [18] 10.6% | viability, T/C [19] 98.8% | viability, T/C [20] 101% | viability, T/C [21] 107% | viability, T/C [22] 82.1% | viability, T/C [25] 98.8% | viability, T/C [26] 101% | viability, T/C [27] 103% | viability, T/C [28] 89% | viability, T/C [29] 7.84% | viability, T/C [30] 13.6% | viability, T/C [31] 100% | viability, T/C [32] 110% | viability, T/C [33] 109% | viability, T/C [34] 77.1%
5.75: pIC50 (second compound 3.16 µM)
active: viability, T/C [5] 8.9% | viability, T/C [6] 9% | viability, T/C [12] 10.1% | viability, T/C [23] 7.17% | viability, T/C [24] 11.9% | viability, T/C [35] 9.39% | viability, T/C [36] 7.34%

CC(C)n1c(=O)n(C)c2cnc3cc(F)c(-c4ccc(OCCCN5CCCCC5)nc4)cc3c21 + Cc1[nH]c2ccc(F)cc2c1-c1nc2c3cccnc3c3ncccc3c2[nH]1
< 5.00: pIC50 (second compound 0.0316 µM) | pIC50 (second compound 0.1 µM) | pIC50 (second compound 0.316 µM) | pIC50 (second compound 1 µM) | pIC50 (second compound 3.16 µM) | pIC50 (second compound 10 µM)
inactive: viability, T/C [1] 112% | viability, T/C [2] 94.7% | viability, T/C [3] 126% | viability, T/C [4] 125% | viability, T/C [5] 130% | viability, T/C [6] 102% | viability, T/C [7] 116% | viability, T/C [8] 110% | viability, T/C [9] 117% | viability, T/C [10] 123% | viability, T/C [11] 139% | viability, T/C [12] 100% | viability, T/C [13] 98.7% | viability, T/C [14] 104% | viability, T/C [15] 127% | viability, T/C [16] 122% | viability, T/C [17] 128% | viability, T/C [18] 96.4% | viability, T/C [19] 106% | viability, T/C [20] 103% | viability, T/C [21] 118% | viability, T/C [22] 125% | viability, T/C [23] 113% | viability, T/C [24] 113% | viability, T/C [25] 90% | viability, T/C [26] 88% | viability, T/C [27] 107% | viability, T/C [28] 102% | viability, T/C [29] 89.9% | viability, T/C [30] 66.7% | viability, T/C [31] 85.1% | viability, T/C [32] 83.4% | viability, T/C [33] 98.8% | viability, T/C [34] 98.8% | viability, T/C [35] 99.6% | viability, T/C [36] 84.8%

Nc1ccn(C2OC(CO)C(O)C2(F)F)c(=O)n1 (stereo unspecified) + CN(C)c1ccc(Nc2c3ccc(NC(=O)CCN4CCCC4)cc3nc3cc(NC(=O)CCN4CCCC4)ccc23)cc1
6.63: pIC50 (second compound 0.316 µM) | pIC50 (second compound 1 µM)
6.77: pIC50 (second compound 10 µM)
6.58: pIC50 (second compound 0.0316 µM) | pIC50 (second compound 0.1 µM)
inactive: viability, T/C [1] 78.2% | viability, T/C [2] 65.2% | viability, T/C [3] 46.7% | viability, T/C [4] 32.3% | viability, T/C [5] 25.2% | viability, T/C [6] 20.5% | viability, T/C [7] 85.3% | viability, T/C [8] 70.4% | viability, T/C [9] 42.6% | viability, T/C [10] 36.3% | viability, T/C [11] 26.2% | viability, T/C [12] 23% | viability, T/C [13] 84.8% | viability, T/C [14] 68.6% | viability, T/C [15] 42.5% | viability, T/C [16] 29.2% | viability, T/C [17] 26.8% | viability, T/C [18] 20.8% | viability, T/C [19] 87% | viability, T/C [20] 65.7% | viability, T/C [21] 45.8% | viability, T/C [22] 28.2% | viability, T/C [23] 23.1% | viability, T/C [24] 19.5% | viability, T/C [25] 86.5% | viability, T/C [26] 67.9% | viability, T/C [27] 38.7% | viability, T/C [28] 28.9% | viability, T/C [29] 24.4% | viability, T/C [30] 19.7% | viability, T/C [31] 76.9% | viability, T/C [32] 59.9% | viability, T/C [33] 39.3% | viability, T/C [34] 18.5% | viability, T/C [35] 23.2% | viability, T/C [36] 18.7%
6.68: pIC50 (second compound 3.16 µM)
